The text below walks through data of patent publication US20260305620A1, “NOVEL INSECTICIDAL MIXTURES FOR CONTROLLING AND PROTECTING CROPS” (ADAMA MAKHTESHIM LTD., priority 2023, published 2026).

The subject of this data set is Aphis gossypii. Put plainly: Mortality of Aphis gossypii adults + progeny on sprayed pepper leaf disks; synergy/antagonism of garlic extract mixtures by Colby's formula. In kind it is in vivo, Aphis gossypii (cotton aphid). Conditions: for mortality at 0.2 ppm: 0.2 ppm ai; for mortality at 0.1 ppm: 0.1 ppm ai; for mortality at 0.8 ppm: read-out: Mortality Observed, alone, 0.8 ppm ai; for mortality at 5 ppm: read-out: Mortality Observed, alone, 5 ppm ai. Here is the method:
Evaluating the synergistic or antagonistic effects of garlic extract and other insecticides on Aphis gossypii in pepper crop.
Pepper plants of Makko F1 cv, obtained from seeds, were grown at totally controlled conditions in a growing chamber. Healthy and untreated Pepper plants were used at least two months after seeding to get leaf disks suitable to be exposed to Aphis gossypii adults.
The aphids' adults were obtained from mass rearing; aphids were reared on cucumber and zucchini plants under controlled environmental conditions.
Suitable leaves were collected from pepper plants. Leaf disks were prepared together with arenas containing a layer of water agar on the base. 8 leaf disks per treatment were obtained from the collected leaves and 20 adults/arena were inoculated.
Each arena was sprayed, using an electric low pressure hand sprayer, with the corresponding insecticide mixture. Tween 80 surfactant, at the rate of 0.05% was added in each treatment mixture.
The untreated check was sprayed with distilled water together with Tween 80 surfactant at a dose of 0.05%.
The experimental arenas were kept in a growth chamber under controlled climatic conditions: 21° C. (±0.5), 60% RH and 16:8 light:dark photoperiod regime. The assessment of mortality (as % of died adults+progeny) was performed according to the characteristics of each Active Ingredient.
Garlic extract a) and the additional pesticide b) were priorly calibrated to obtain the Dose Response Curve and the Lethal Dose (ppm) values; according to the calibrations the mixing protocols were obtained at the proper mixing ratios.
All the statistical procedures [Student-Newman-Keuls (SNK), Dose response analysis (Probit, confidence level 95%) Anova and other calculation analysis] were performed using the ARM 2020.0 software.
The evaluation of Synergy or Antagonism of the two active ingredients was performed by using the Colby's formula, above described: […]
in which E represents the expected percentage of insecticidal control for the combination of the two insecticides at defined doses, A is the percentage of insecticidal control observed by the compound (I) at a defined dose (for example, a), B is the percentage of insecticidal control observed by the compound (II) at a defined dose (for example, b). When the ratio between the observed percentage of insecticidal control for the combination of the two insecticides at defined doses and the expected percentage of insecticidal control for the combination of the two insecticides at defined doses is greater than 1.15, the effect is synergistic.

Where [1] appears, read: Aphis gossypii, foliar, alone, read-out: Mortality Observed.
Setting [2] is: Aphis gossypii, foliar, read-out: Mortality Observed, alone, 1 ppm ai.
Where [3] appears, read: Aphis gossypii, foliar, alone, 1 ppm ai, read-out: Mortality Observed.
[4] abbreviates: Aphis gossypii, foliar, alone, 2 ppm ai, read-out: Mortality Observed.

SMILES strings stand for the structures. Like-named read-outs stand apart in the source and are kept apart here.

Turning to `CC1(C)[C@H](C(=O)O[C@H](C#N)c2cccc(Oc3ccccc3)c2)[C@@H]1/C=C(\Cl)C(F)(F)F` (racemic) [Lambda cyhalothrin, lambda-cyhalothrin], under setting [1], the mortality at 0.2 ppm was found to be 32.1%. Also, under “Aphis gossypii, foliar, alone, 0.4 ppm ai, read-out: Mortality Observed”, the mortality at 0.4 ppm turned out to be 37.6%.

Take `C/C(=N\C#N)N(C)Cc1ccc(Cl)nc1` [Acetamiprid, acetamiprid]: the mortality at 0.01 ppm (Aphis gossypii, foliar, alone, 0.01 ppm ai, read-out: Mortality Observed) is 48.9%. The mortality at 0.05 ppm (Aphis gossypii, foliar, alone, 0.05 ppm ai, read-out: Mortality Observed) turned out to be 25%. Also, the mortality at 0.1 ppm under setting [1] amounted to 48.9%.

As for `C[C@]1(COC(=O)C2CC2)[C@@H]2C[C@H](O)[C@@]3(C)Oc4cc(-c5cccnc5)oc(=O)c4[C@H](O)[C@@H]3[C@@]2(C)CC[C@@H]1OC(=O)C1CC1` [Afidopyropen, afidopyropen], where the note is “Aphis gossypii, foliar, read-out: Mortality Observed, alone, 0.02 ppm ai”, the mortality at 0.02 ppm was 25.3%. Also, the mortality at 1 ppm under setting [2] is 37.3%. Further, where the note is “Aphis gossypii, foliar, read-out: Mortality Observed, alone, 2 ppm ai”, the mortality at 2 ppm turned out to be 49.4%.

Consider `C/C=C(\C)C(=O)O[C@H]1C[C@@H](OC(C)=O)[C@@]2(C(=O)OC)CO[C@H]3[C@@H](O)[C@@](C)([C@]45O[C@@]4(C)[C@H]4C[C@@H]5O[C@@H]5OC=C[C@@]54O)[C@H]4[C@]1(CO[C@]4(O)C(=O)OC)[C@@H]32` [Azadirachtin, azadirachtin], for which, under setting [3], the mortality at 1 ppm worked out at 22.7%. In addition, the mortality at 2 ppm under setting [4] amounted to 28.9%.

Turning to `FC(F)(F)c1ccc(COc2ncncc2C2OCCCO2)cc1` [Benzpyrimoxan, benzpyrimoxan], under “Aphis gossypii, foliar”, the mortality at 0.8 ppm turned out to be 8.2% and the mortality at 5 ppm was found to be 42%.

For `CC(C)c1cc(Oc2ccccc2)cc(C(C)C)c1NC(=S)NC(C)(C)C` [Diafenthiuron, diafenthiuron], the mortality at 1 ppm under setting [2] was 22.7%. The mortality at 5 ppm (Aphis gossypii, foliar) stood at 26%. Moreover, under “alone, 5 ppm ai”, the “Mortality Observed” value turned out to be 26.22%.

For `N#Cc1nn(-c2c(Cl)cc(C(F)(F)F)cc2Cl)c(N)c1[S+]([O-])C(F)(F)F` (stereo not shown) [Fipronil, fipronil], the mortality at 0.1 ppm under setting [1] was 35%. In addition, the mortality at 0.5 ppm (Aphis gossypii, foliar, alone, 0.5 ppm ai, read-out: Mortality Observed) came to 43.2%.

With `N#CCNC(=O)c1cnccc1C(F)(F)F` [Flonicamid, flonicamid], the “Mortality Observed” value by setting is: (alone, 1 ppm ai) 31.4%; (alone, 2 ppm ai) 27.2%.

`CC(=O)N1C(=O)N(NCc2cccnc2)Cc2cc(C(F)(C(F)(F)F)C(F)(F)F)ccc21` [Pyrifluquinazon, pyrifluquinazon]: where the note is “Aphis gossypii, foliar, read-out: Mortality Observed, alone, 0.08 ppm ai”, the mortality at 0.08 ppm is 24.9%. Moreover, under “Aphis gossypii, foliar, read-out: Mortality Observed, alone, 0.5 ppm ai”, the mortality at 0.5 ppm was 42.7%. The mortality at 0.8 ppm (Aphis gossypii, foliar) came to 47.6%.

Regarding `CCOC(=O)OC1=C(c2cc(C)ccc2C)C(=O)N[C@]12CC[C@@H](OC)CC2` [Spirotetramat, spirotetramat], under setting [3], the mortality at 1 ppm was determined as 23.5%. Further, the mortality at 2 ppm under setting [4] is 44.4%.

On to `CC(C)[C@@H](Nc1ccc(C(F)(F)F)cc1Cl)C(=O)OC(C#N)c1cccc(Oc2ccccc2)c1` (stereo partly shown) [Tau fluvalinate, tau-fluvalinate], for which, under setting [1], the mortality at 0.1 ppm was 28.1% and the mortality at 0.2 ppm was 47.9%.

Turning to `CCc1nn(C)c(C(=O)NCc2ccc(Oc3ccc(C)cc3)cc2)c1Cl` [Tolfenpyrad, tolfenpyrad], the mortality at 0.2 ppm under setting [1] came out at 15.9%. Moreover, the mortality at 1 ppm under setting [3] amounted to 39.3%.

By mortality is commonly meant the share of the test organisms that died.
